Data: patent US20240174680A1, “CDK2 INHIBITORS AND METHODS OF USING THE SAME” (Cedilla Therapeutics, Inc., priority 2021, published 2024)

Target: CDK2/Cyclin E1 (Homo sapiens, UniProt P24941)
Assay: CDK2/Cyclin E1 Caliper LabChip EZ Reader mobility shift assay
Assay type: biochemical
Set-up: purchased Eurofins 14-475
Conditions: read-out: Caliper Assay (CDK2/CCNE1): IC50
Protocol: Inhibition of CDK2/Cyclin E1 activity in the presence of compounds of the present disclosure was evaluated using a Caliper LabChip® EZ Reader mobility shift assay. In the assay, CDK2/Cyclin E1 (Eurofins, 14-475) catalyzed the phosphorylation of a fluorescently tagged peptide 5-FAM-QSPKKG-CONH2 (PerkinElmer, FL Peptide 18) which induced a difference in capillary electrophoresis mobility. The peptide substrate and product were measured, and the conversion ratio was used to determine the inhibition (as % activity and IC50 values) of CDK2/Cyclin E1. Reactions contained 50 mM HEPES pH 7.5, 10 mM MgCl2, 1 mM EDTA, 2 mM DTT, 0.01% Brij35, 0.5 mg/mL BSA, 0.1% DMSO, 2.5 nM CDK2/Cyclin E1, 100 μM ATP, and 1.5 μM fluorescent peptide substrate.
Dose titrations of inhibitors in 100% DMSO were combined with 3.25 nM CDK2/Cyclin E1 and 130 μM of ATP in reaction buffer. The mixtures were incubated for 30 minutes before the addition of fluorescent peptide substrate to initiate the kinase reaction. The final conditions were 2.5 nM CDK2/Cyclin E1, 100 μM ATP, and 1.5 μM fluorescent peptide. The reactions were stopped after 100 minutes with the addition of EDTA (400 mM final EDTA concentration). The stopped reactions were analyzed on a Caliper LabChip® EZ Reader II. The conversion ratios were normalized to yield % activity, plotted against compound concentration, and fit to a four-parameter equation to determine the IC50 for each compound.

IC50 [nM]	SMILES
≤ 10	C[C@@H](OCC1CCC(F)(F)CC1)[C@H](NC(=O)[C@@H]1CN(C(=O)c2cncs2)CC12CN(C(=O)[C@H]1CC1(C)C)C2)C(=O)N1CCC(CO)CC1 [I-397]
1000 to 10000	Cc1ccc(CNC(=O)[C@@H]2CN(C(=O)c3cnn(Cc4ccccc4)c3)CC23CN(C(=O)[C@H]2CC2(C)C)C3)nc1 [I-365]
100 to 1000	CNC(=O)[C@@H](NC(=O)[C@@H]1CN(C(=O)c2cnn(Cc3ccccc3)c2)CC12CN(C(=O)N(C)C1CC1)C2)[C@@H](C)OCC1CCCCC1 [I-295]
10 to 100	Cc1nc(C)c(C(=O)N2C[C@@H](C(=O)N[C@H](C(=O)N3CCC(OC(F)(F)F)CC3)[C@@H](C)OCC34CCC(CC3)OC4)C3(C2)CN(C(=O)[C@H]2CC2(C)C)C3)s1 [I-455]
> 10000	CNC(=O)C(NC(=O)[C@@H]1CN(C(=O)c2cncs2)CC12CN(C(=O)[C@H]1CC1(C)C)C2)c1ccc(C)nn1 (some centres unmarked) [I-420]
> 10000	CNC(=O)[C@@H](NC(=O)[C@@H]1CN(C(=O)c2cncs2)CC12CN(Cc1cnco1)C2)[C@@H](C)OCC12CCC(CC1)OC2 [I-350]
> 10000	CNC(=O)C(NC(=O)[C@@H]1CN(C(=O)c2cn[nH]c2)CC12CN(C(=O)[C@H]1CC1(C)C)C2)C(O)Cc1ccccc1 (some centres unmarked) [I-298]
100 to 1000	C[C@@H]1C[C@H](C)CN(C(=O)[C@@H](NC(=O)C2CN(C(=O)c3cn[nH]c3)CC23CN(C(=O)[C@H]2CC2(C)C)C3)[C@@H](C)OCc2ccccc2)C1 (some centres unmarked) [I-124]
> 10000	CNC(=O)[C@@H](NC(=O)C1CN(Cc2n[nH]c3ccccc23)CC12CN(C(=O)[C@H]1CC1(C)C)C2)[C@@H](C)OCc1ccccc1 (some centres unmarked) [I-159]
≤ 10	C[C@@H](OCC1CCCCC1)[C@H](NC(=O)[C@@H]1CN(C(=O)c2cnn(Cc3ccccc3)c2)CC12CN(C(=O)[C@H]1CC1(C)C)C2)C(=O)N1CCC(c2cc[nH]n2)CC1 [I-443]
100 to 1000	C[C@@H](OCC1CCCCC1)[C@H](NC(=O)[C@@H]1CN(C(=O)c2ccn[nH]2)CC12CN(C(=O)[C@H]1CC1(C)C)C2)C(=O)N1CCCCC1 [I-216]
≤ 10	C[C@@H](OCC1CCCCC1)[C@H](NC(=O)[C@@H]1CN(C(=O)c2cnn(Cc3ccccc3)c2)CC12CN(C(=O)[C@H]1CC1(C)C)C2)C(=O)N1CCC(c2ncc[nH]2)CC1 [I-446]
100 to 1000	CNC(=O)[C@@H](NC(=O)[C@@H]1CN(C(=O)c2cnn(Cc3ccccc3)c2)CC12CN(C(=O)N(C)C(C)C)C2)[C@@H](C)OCC1CCCCC1 [I-274, (S)-6-(1-benzyl-1H-pyrazole-4-carbonyl)-N8-((2S,3R)-3-(cyclohexylmethoxy)-1-(methylamino)-1-oxobutan-2-yl)-N2-isopropyl-N2-methyl-2,6-diazaspiro[3.4]octane-2,8-dicarboxamide]
1000 to 10000	CC1(C)C[C@@H]1C(=O)N1CC2(CN(C(=O)c3cnn(Cc4ccccc4)c3)C[C@H]2C(=O)N2CCC[C@H](OCC3CCCCC3)C2)C1 [I-236]
≤ 10	C[C@@H](OCC1CCCCC1)[C@@H](COC1CCC(F)(F)CC1)NC(=O)[C@@H]1CN(C(=O)c2cnn(Cc3ccccc3)c2)CC12CN(C(=O)[C@H]1CC1(C)C)C2 [I-271]
≤ 10	COC[C@H]1CCCN(C(=O)[C@@H](NC(=O)[C@@H]2CN(C(=O)c3cncs3)CC23CN(C(=O)[C@H]2CC2(C)C)C3)[C@@H](C)OCc2ccc(F)cc2)C1 [I-318]
≤ 10	COC[C@@H]1CCCN(C(=O)[C@@H](NC(=O)C2CN(C(=O)c3cncs3)CC23CN(C(=O)[C@H]2CC2(C)C)C3)[C@@H](C)OCC2CCCCC2)C1 (some centres unmarked) [I-195]
100 to 1000	CNC(=O)[C@H](CSCc1ccccc1)NC(=O)[C@@H]1CN(C(=O)c2cnn(Cc3ccccc3)c2)CC12CN(C(=O)[C@H]1CC1(C)C)C2 [I-225]
> 10000	CC1(C)C[C@@H]1C(=O)N1CC2(CN(C(=O)c3cnn(Cc4ccccc4)c3)C[C@H]2C(=O)NCc2cccnn2)C1 [I-359]
10 to 100	C[C@@H](OC1(C2CCCCC2)CC1)[C@H](NC(=O)[C@@H]1CN(C(=O)c2cncs2)CC12CN(C(=O)[C@H]1CC1(C)C)C2)C(=O)N1CCCCC1 [I-357]
1000 to 10000	CNC(=O)[C@@H](NC(=O)[C@@H]1CN(C(=O)c2cnn(Cc3ccccc3)c2)CC12CN(C(=O)NC(C)C)C2)[C@@H](C)OCC1CCCCC1 [I-267]
> 10000	CC(=O)N1C[C@@H](C(=O)N[C@H](C(=O)N2CCCCC2)[C@@H](C)OCC2CCCCC2)C2(C1)CN(C(=O)[C@H]1CC1(C)C)C2 [I-118]
100 to 1000	CNC(=O)[C@@H](NC(=O)[C@@H]1CN(C(=O)c2cnn(Cc3ccccc3)c2)CC12CN(C(=O)[C@H]1CC1(C)C)C2)C(C)(C)S(=O)(=O)Cc1ccccc1 [I-199, (S)-6-(1-benzyl-1H-pyrazole-4-carbonyl)-N—((R)-3-(benzylsulfonyl)-3-methyl-1-(methylamino)-1-oxobutan-2-yl)-2-((S)-2,2-dimethylcyclopropane-1-carbonyl)-2,6-diazaspiro[3.4]octane-8-carboxamide]
100 to 1000	C[C@@H](OCC1CCCCC1)[C@H](NC(=O)[C@@H]1CN(C(=O)c2cnn(C(F)(F)F)c2)CC12CN(C(=O)[C@H]1CC1(C)C)C2)C(=O)N1CCCCC1 [I-115]
> 10000	Cc1ccc(CNC(=O)[C@@H]2CN(C(=O)c3cnn(Cc4ccncc4F)c3)CC23CN(C(=O)[C@H]2CC2(C)C)C3)nn1 [I-35]

The remaining lines, values behind:

SMILES	IC50 [nM]
CNC(=O)[C@@H](NC(=O)[C@@H]1CN(Cc2cnco2)CC12CN(C(=O)[C@H]1CC1(C)C)C2)[C@@H](C)OCc1ccccc1 [I-78A, (S)—N-((2S,3R)-3-(benzyloxy)-1-(methylamino)-1-oxobutan-2-yl)-2-((S)-2,2-dimethylcyclopropane-1-carbonyl)-6-(oxazol-5-ylmethyl)-2,6-diazaspiro[3.4]octane-8-carboxamide]	> 10000
CNC(=O)[C@@H](NC(=O)[C@@H]1CN(C(=O)c2cnc(COC(C)(C)C)s2)CC12CN(C(=O)[C@H]1CC1(C)C)C2)[C@@H](C)OCC1CCCCC1 [I-175A]	≤ 10
CC1(C)C[C@@H]1C(=O)N1CC2(CN(C(=O)c3cnn(Cc4ccccc4)c3)C[C@H]2C(=O)NC2CCN(C(=O)c3ccccc3)CC2)C1 [I-61A]	1000 to 10000
CNC(=O)[C@@H](NC(=O)[C@H]1CN(Cc2cccnc2)CC12CN(C(=O)[C@H]1CC1(C)C)C2)[C@@H](C)OCc1ccccc1 [I-49B]	> 10000
CO[C@H]1COCC[C@@H]1NC(=O)[C@@H]1CN(C(=O)c2cnn(Cc3ccccc3)c2)CC12CN(C(=O)[C@H]1CC1(C)C)C2 [I-148A]	> 10000
CNC(=O)[C@@H](NC(=O)[C@@H]1CN(C(=O)C2CCNC2)CC12CN(C(=O)[C@H]1CC1(C)C)C2)[C@@H](C)OCc1ccccc1 (stereo partly drawn) [I-70A, (8S)—N-((2S,3R)-3-(benzyloxy)-1-(methylamino)-1-oxobutan-2-yl)-2-((S)-2,2-dimethylcyclopropane-1-carbonyl)-6-(pyrrolidine-3-carbonyl)-2,6-diazaspiro[3.4]octane-8-carboxamide]	> 10000
CNC(=O)[C@@H](NC(=O)[C@H]1CN(C(=O)c2cnn(Cc3ccccc3)c2)CC12CN(C(=O)[C@H]1CC1(C)C)C2)[C@@H](C)OCCC1CCCCC1 [I-125B]	10 to 100
CNC(=O)[C@@H](NC(=O)[C@@H]1CN(C(=O)c2cnc(C(F)(F)F)s2)CC12CN(C(=O)[C@H]1CC1(C)C)C2)[C@@H](C)OCC1CCCCC1 [I-161A]	> 10000
Cc1noc([C@H](C)NC(=O)[C@H]2CN(C(=O)c3cnn(Cc4ccccc4)c3)CC23CN(C(=O)[C@H]2CC2(C)C)C3)n1 [I-158B]	> 10000
CNC(=O)[C@@H](NC(=O)[C@@H]1CN(C(=O)c2cnn(Cc3ccccc3)c2)CC12CN(C(=O)CC1(CO)CC1)C2)[C@@H](C)OCc1ccccc1 [I-92A]	> 10000
CNC(=O)[C@@H](NC(=O)[C@@H]1CN(C(=O)c2cccnc2)CC12CN(C(=O)[C@H]1CC1(C)C)C2)[C@@H](C)OCc1ccccc1 [I-42A]	1000 to 10000
CNC(=O)[C@@H](NC(=O)[C@H]1CN(C(=O)c2cnn(Cc3ccccc3)c2)CC12CN(C(=O)[C@H]1CC1(C)C)C2)C(C)(C)SCc1ccccc1 [I-171B]	> 10000
CC1(C)C[C@@H]1C(=O)N1CC2(CN(C(=O)c3cnn(Cc4ccccc4)c3)C[C@H]2C(=O)Nc2cccc(-c3ccccc3)c2)C1 [I-63A]	1000 to 10000
CNC(=O)[C@@H](NC(=O)[C@H]1CN(C(=O)c2cnn(Cc3ccccc3)c2)CC12CN(C(=O)CC1(COC)CC1)C2)[C@@H](C)OCc1ccccc1 [I-82B]	> 10000
COc1cccc(CNC(=O)[C@H]2CN(C(=O)c3cnn(Cc4ccccc4)c3)CC23CN(C(=O)[C@H]2CC2(C)C)C3)n1 [I-126B]	> 10000
CNC(=O)[C@@H](NC(=O)[C@]1(C)CN(C(=O)c2cnn(Cc3ccccc3)c2)CC12CN(C(=O)[C@H]1CC1(C)C)C2)[C@@H](C)OCC1CCCCC1 [I-499A]	1000 to 10000
CNC(=O)[C@@H](NC(=O)[C@H]1CN(C(=O)c2sc(Cl)nc2C)CC12CN(C(=O)[C@H]1CC1(C)C)C2)[C@@H](C)OCC1CCCCC1 [I-208B]	100 to 1000
CC1(C)C[C@@H]1C(=O)N1CC2(CN(C(=O)c3cnn(Cc4ccccc4)c3)C[C@@H]2C(=O)Nc2ccc(-c3ccccc3)cc2)C1 [I-81B]	1000 to 10000
CC1(C)C[C@@H]1C(=O)N1CC2(CN(C(=O)c3cnn(Cc4ccccc4)c3)C[C@H]2C(=O)Nc2ccc(Cc3ccccc3)cc2)C1 [I-84A]	1000 to 10000
